Data on nine compounds can be found in ChEMBL document CHEMBL3779811, “A new dammarane-type saponin from Gynostemma pentaphyllum induces apoptosis in A549 human lung carcinoma cells” (Bioorg Med Chem Lett, 2016).

Converted amounts (≈) assume the structure as drawn. The source made the active and inactive calls. No cut-off for these calls is given here.

For orientation: IC50 means the midpoint of a concentration-inhibition curve.

The test system of experiment [1] is A549. Kind of experiment: Cytotoxicity against human A549 cells assessed as decrease in viable cells at 60 ug/mL after 48 hrs by CCK-8 assay. In kind it is functional. Background: Tetrazolium assays rely on reduction of a dye to a coloured formazan, in cell work by metabolically active cells.
For experiment [2], the system named is A549. Nature of the experiment: Cytotoxicity against human A549 cells assessed as decrease in viable cells after 48 hrs by CCK-8 assay. Conditions: for IC50: A549, 48 h. The class given is functional, cell-based.
In experiment [3] the test system is A549. Kind of experiment: Induction of apoptosis in human A549 cells assessed as loss of mitochondrial membrane potential by measuring ratio of red to green fluorescence at 50 ug/ml after 48 hrs by JC-1 staining based flow cytometry (reference value: 28.9). The class given is functional.
Experiment [4] has as its system A549. Nature of the experiment: Induction of apoptosis in human A549 cells assessed as late apoptotic cells at 50 ug/mL after 48 hrs by Annexin V-FITC/propidium iodide staining based flow cytometry (reference value: 3.38 %). The class given is functional. On the technique in general: Flow cytometry measures light scatter and fluorescence of single cells or particles in a stream.

Experiment [5] relates to A549. Nature of the experiment: Induction of apoptosis in human A549 cells assessed as chromatin condensation at 50 ug/mL after 48 hrs by Hoechst-33258 staining based fluorescence microscopy. In kind it is functional, cell-based.
The subject of experiment [6] is A549. Nature of the experiment: Induction of apoptosis in human A549 cells assessed as mitochondrial depolarization at 50 ug/ml after 48 hrs by JC-1 staining based fluorescence microscopy. The class given is functional, cell-based.
The subject of experiment [7] is A549. Nature of the experiment: Induction of apoptosis in human A549 cells assessed as early apoptotic cells at 50 ug/mL after 48 hrs by Annexin V-FITC/propidium iodide staining based flow cytometry (reference value: 4.57 %). In kind it is functional.
The test system of experiment [8] is A549. Nature of the experiment: Induction of apoptosis in human A549 cells assessed as round and shrunken cells at 50 ug/mL after 48 hrs by inverted microscopy. In kind it is functional, cell-based.
In experiment [9] the test system is A549. Kind of experiment: Induction of apoptosis in human A549 cells assessed as increase in detached cells at 50 ug/ml after 48 hrs by inverted microscopy. In kind it is functional, cell-based.
The test system of experiment [10] is A549. Nature of the experiment: Induction of apoptosis in human A549 cells assessed as necrotic cells at 50 ug/mL after 48 hrs by Annexin V-FITC/propidium iodide staining based flow cytometry (reference value: 0.59 %). In kind it is functional.
Experiment [11] concerns A549. Nature of the experiment: Induction of apoptosis in human A549 cells assessed as viable cells at 50 ug/mL after 48 hrs by Annexin V-FITC/propidium iodide staining based flow cytometry (reference value: 91.46 %). In kind it is functional. Conditions: A549, 48 h, read-out: Activity.
Experiment [12] concerns A549. Nature of the experiment: Induction of apoptosis in human A549 cells assessed as mitochondrial membrane potential at 50 ug/ml after 48 hrs by JC-1 staining based flow cytometry (reference value: 96.66%). The class given is functional.

Turning to `CC(C)=CCC[C@@](C)(O)[C@H]1CC[C@]2(C)[C@@H]1[C@H](O)C[C@@H]1[C@@]3(C)C[C@@H](O)[C@H](O[C@@H]4O[C@H](CO)[C@@H](O)[C@H](O)[C@H]4O[C@@H]4O[C@H](CO)[C@@H](O)[C@H](O)[C@H]4O)C(C)(C)[C@@H]3CC[C@]12C`, the Activity in the experiment with A549 [1] was found to be 30%. In addition, in the experiment on A549 [2], the Activity result was “Dose-dependent effect” and the IC50 was found to be 91 µg/mL (≈ 114 µM).
For the compound `C=C(CCC=C(C)C)[C@H]1CC[C@]2(C)[C@@H]1[C@H](O)C[C@@H]1[C@@]3(C)C[C@@H](O)[C@H](O[C@@H]4O[C@H](CO)[C@@H](O)[C@H](O)[C@H]4O[C@@H]4O[C@H](CO)[C@@H](O)[C@H](O)[C@H]4O)C(C)(C)[C@@H]3CC[C@]12C` [DAMULIN B], in the experiment with A549 [2], the IC50 was determined as 23.8 µg/mL (≈ 30.4 µM).
As to `CC(C)=CCC[C@](C)(O)[C@@H]1CC[C@@]2(C)[C@H]1[C@@H](O)C[C@H]1[C@]3(C)C[C@H](O)[C@@H](O[C@H]4O[C@@H](CO)[C@H](O)[C@@H](O)[C@@H]4O)C(C)(C)[C@H]3CC[C@@]12C`, in the experiment on A549 [3], the Ratio is 8.7. In addition, the Activity is 2.74% in the experiment on A549 [4]; 44.7% with A549 [1]; 14.34% in the experiment with A549 [7]; 1.44% in the experiment on A549 [10]; “Dose-dependent effect” in the experiment on A549 [2]; 89.64% in the experiment with A549 [12]. Also, the result in the experiment with A549 [5], in the experiment with A549 [6], with A549 [8] and in the experiment with A549 [9] was Active. Moreover, the viability at 50 µg/mL in the experiment with A549 [11] is 81.5%. In addition, the IC50 with A549 [2] was determined as 74.3 µg/mL (≈ 116 µM).
On to `CC(C)=CCC[C@@](C)(O[C@@H]1O[C@H](CO)[C@@H](O)[C@H](O)[C@H]1O)[C@@H]1CC[C@@]2(C)[C@H]1[C@@H](O)C[C@H]1[C@]3(C)C[C@H](O)[C@@H](O[C@H]4O[C@@H](CO)[C@H](O)[C@@H](O)[C@@H]4O[C@H]4O[C@@H](CO)[C@H](O)[C@@H](O)[C@@H]4O)C(C)(C)[C@H]3CC[C@@]12C`, for which the concentration for half-maximal inhibition (IC50) with A549 [2] was 112 µg/mL (≈ 116 µM).
Still for that read-out and setting: then `C=C(CCC=C(C)C)[C@H]1CC[C@]2(C)[C@@H]1[C@H](O)C[C@@H]1[C@@]3(C)C[C@@H](O)[C@H](O[C@@H]4O[C@H](CO)[C@@H](O)[C@H](O)[C@H]4O[C@@H]4O[C@H](COC(C)=O)[C@@H](O)[C@H](O)[C@H]4O)C(C)(C)[C@@H]3CC[C@]12C`, with 40.4 µg/mL (≈ 49 µM); and `CC(C)=CC/C=C(/C)[C@H]1CC[C@]2(C)[C@@H]1[C@H](O)C[C@@H]1[C@@]3(C)C[C@@H](O)[C@H](O[C@@H]4O[C@H](CO)[C@@H](O)[C@H](O)[C@H]4O[C@@H]4O[C@H](CO)[C@@H](O)[C@H](O)[C@H]4O)C(C)(C)[C@@H]3CC[C@]12C`, with 29 µg/mL (≈ 37 µM); and `CC(C)=CCC[C@@](C)(O[C@@H]1O[C@H](CO[C@H]2OC[C@H](O)[C@@H](O)[C@@H]2O)[C@@H](O)[C@H](O)[C@H]1O)[C@@H]1CC[C@@]2(C)[C@H]1[C@@H](O)C[C@H]1[C@]3(C)C[C@H](O)[C@@H](O[C@H]4O[C@@H](CO)[C@H](O)[C@@H](O)[C@@H]4O[C@H]4O[C@@H](CO)[C@H](O)[C@@H](O)[C@@H]4O)C(C)(C)[C@H]3CC[C@@]12C`, with 168 µg/mL (≈ 153 µM).
`CC(=O)OC[C@H]1O[C@@H](O[C@H]2[C@H](O[C@H]3[C@H](O)C[C@]4(C)[C@H]5C[C@@H](O)[C@@H]6[C@@H](/C(C)=C\CC=C(C)C)CC[C@@]6(C)[C@]5(C)CC[C@H]4C3(C)C)O[C@H](CO)[C@@H](O)[C@@H]2O)[C@H](O)[C@@H](O)[C@@H]1O`: in the experiment on A549 [2], the half-maximal inhibitory concentration (IC50) stood at 61.2 µg/mL (≈ 74.2 µM).
For `CC(C)=CCC[C@](C)(O)[C@H]1CC[C@]2(C)[C@@H]1[C@H](O)C[C@@H]1[C@@]3(C)C[C@@H](O)[C@H](O[C@@H]4O[C@H](CO)[C@@H](O)[C@H](O)[C@H]4O[C@@H]4O[C@H](CO)[C@@H](O)[C@H](O)[C@H]4O)C(C)(C)[C@@H]3CC[C@]12C`, the Activity with A549 [1] was 37.2%. In addition, in the experiment on A549 [2], the Activity result is “Dose-dependent effect” and the IC50 is 78.6 µg/mL (≈ 98.1 µM).
